Reference: US7232690B1, “Method and device for detecting and isolating pharmacological compounds being contained in substance mixtures” (LTS Lohmann Therapie-Systeme AG, priority 1999, dated 2007)
Where two headings read alike, the source gives them in different places.

How the values were obtained:
Trypsin = target: T1, Trypsin (Bos taurus, UniProt P00760); assay: Trypsin inhibition constant (Ki); format: biochemical; conditions: read-out: Ki [μmol/l] Trypsin
T1 sequence (P00760 24-246): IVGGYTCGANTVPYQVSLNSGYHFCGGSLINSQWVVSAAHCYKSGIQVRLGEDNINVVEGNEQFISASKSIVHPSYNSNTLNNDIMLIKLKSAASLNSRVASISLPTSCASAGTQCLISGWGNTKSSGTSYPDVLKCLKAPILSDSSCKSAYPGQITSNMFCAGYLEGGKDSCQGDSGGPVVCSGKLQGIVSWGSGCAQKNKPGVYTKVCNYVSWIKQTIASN

serine protease trypsin = assay: Ultrafiltration target-binding test of non-equimolar amidinophenylalanine mixture with trypsin (Example 2); conditions: applied 6 8.4, 7 41.25, 10 2.5 μmol/l
Method: (§1) Incubation of the substance library and the inhibitor with thrombin took place at room temperature within 1 hour; solvent: 0.9% of NaCl in H2O. The separation of the protein-ligand complexes formed was accomplished by ultrafiltration (centrifugal). All filtration procedures and washes were carried out until dryness of the filters.
(§2) Filter: Microcon 10 (Amicon)
(§3) Centrifugation conditions: 9981×g, room temperature
(§4) Washing steps: 2×, each with 150 μl of 0.9% NaCl in H2O, 4° C.
(§5) Ultrafiltration and analysis of the filtrate were followed by washing steps and the liberation of the ligand (the active chemical substance) from the protein-ligand complex retained on the filter by treatment with 200 μl of water/methanol/TFA (49.5/49.5/1) at room temperature.
(§6) The blind sample (without thrombin) was treated analogously in all steps so that a comparison of the filtrates was possible. The filtrates obtained in all steps were dried by means of a speed-VAC concentrator, and later dissolved in the corresponding HPLC flow agent of defined amount applying ultrasound and agitation.
Identification of the ligands was accomplished by analytic HPLC: stationary phase Hypersil C 18 BDS, 3 μm, 150*0.3 mm, Fusica (LC Packings)—mobile phase: acetonitrile/water/TFA (35/65/0.01), isocratic, 5 μL/min, λ=[…].
The trypsin inhibitors of 3-amidinophenylalanine represented in the following by their structural formulae, were used as chemical substances, and the serine protease trypsin as target:
The experiments were performed as described in Example 1.

Thrombin [1] = target: T2, Thrombin (Homo sapiens, UniProt P00734); assay: Thrombin inhibition constant (Ki); format: biochemical; conditions: read-out: Ki [μmol/l] Thrombin
serine protease thrombin = serine protease thrombin (Homo sapiens, UniProt P00734); assay: Ultrafiltration target-binding test of substance library with thrombin, HPLC of filtrates (Example 1); conditions: 10 μmol/l each substance, 5 μmol/l thrombin, 1 hour room temperature
Method: As a target, the serine protease thrombin was chosen.
The examined assays were of the following composition:
as §1, §2, §3, §4, §5, §6
Identification of the ligands was accomplished by analytic HPLC: stationary phase Hypersil C 18 BDS, 3 μm, 150*0.3 mm, Fusica (LC Packings)—mobile phase: acetonitrile/water/TFA (35/65/0.01), isocratic, 5 μL/min, λ=[…]. […]

Thrombin [2] = target: T2, Thrombin; conditions: thrombin inhibitor CRC 220 of Behringwerke; cited from earlier work

Q: For `CS(=O)(=O)N1CCN(C(=O)C(Cc2cccc(C(=N)N)c2)NS(=O)(=O)c2ccc3ccccc3c2)CC1` (stereo not shown) [Substance 6], which Ki (Trypsin) is on record?
A: 0.067 µmol/L

Q: What about the “1st Wash” value (serine protease trypsin; Sample 261, without trypsin) of the same compound?
A: 0.71 µmol/L

Q: What about the “2nd Wash” value (serine protease trypsin; Sample 261, without trypsin) of the same compound?
A: 0.05 µmol/L

Q: What about the Filtrate (serine protease trypsin; Sample 261, without trypsin) of the same compound?
A: 7.44 µmol/L

Q: What about the Liberation (serine protease trypsin; Sample 261, without trypsin) of the same compound?
A: 0.01 µmol/L

Q: What about the “1st Wash” value (serine protease trypsin; Sample 262, trypsin 50 μmol/l) of the same compound?
A: 0.23 µmol/L

Q: What about the “2nd Wash” value (serine protease trypsin; Sample 262, trypsin 50 μmol/l) of the same compound?
A: 0.15 µmol/L

Q: And the Filtrate (serine protease trypsin; Sample 262, trypsin 50 μmol/l)?
A: 0.67 µmol/L

Q: What about the Liberation (serine protease trypsin; Sample 262, trypsin 50 μmol/l) of the same compound?
A: 6.09 µmol/L

Q: And the Ki (Thrombin [1])?
A: 0.0021 µmol/L

Q: With `Cl.Clc1cccc(Cl)c1NC1=NCCN1` [clonidin-HCL] as the compound, how does the “Binding to target thrombin (difference between main experiment and blind sample)” value (serine protease thrombin) read?
A: not an inhibitor

Q: With `CCOC(=O)C1CCN(C(=O)C(Cc2cccc(C(=N)N)c2)NS(=O)(=O)c2ccc3ccccc3c2)CC1` (stereo not shown) [Substance 10] as the compound, how does the Ki (Trypsin) read?
A: 0.02 µmol/L

Q: And the “1st Wash” value (serine protease trypsin; Sample 261, without trypsin)?
A: 0.02 µmol/L

Q: What about the “2nd Wash” value (serine protease trypsin; Sample 261, without trypsin) of the same compound?
A: 0.0013 µmol/L

Q: And the Filtrate (serine protease trypsin; Sample 261, without trypsin)?
A: 0.05 µmol/L

Q: What about the Liberation (serine protease trypsin; Sample 261, without trypsin) of the same compound?
A: 0.0011 µmol/L

Q: What about the “1st Wash” value (serine protease trypsin; Sample 262, trypsin 50 μmol/l) of the same compound?
A: 0.0058 µmol/L

Q: What about the “2nd Wash” value (serine protease trypsin; Sample 262, trypsin 50 μmol/l) of the same compound?
A: 0.0012 µmol/L

Q: What about the Filtrate (serine protease trypsin; Sample 262, trypsin 50 μmol/l) of the same compound?
A: 0.02 µmol/L

Q: What about the Liberation (serine protease trypsin; Sample 262, trypsin 50 μmol/l) of the same compound?
A: 0.53 µmol/L

Q: And the Ki (Thrombin [1])?
A: 0.36 µmol/L

Q: With `COc1cc(C)c(S(=O)(=O)N[C@@H](CC(=O)O)C(=O)N[C@H](Cc2ccc(C(=N)N)cc2)C(=O)N2CCCCC2)c(C)c1C` [CRC 220] as the compound, how does the Ki (Thrombin [2]) read?
A: 2.5 nM
